A word on the IC50: it is the concentration that gives 50% inhibition. Low values mean inhibition by little substance, high ones a need for much substance.

In the assay the target is T1, Human KLK1 (Homo sapiens, UniProt P06870).
T1 construct: purchased Callbiochem (Calbiochem)
T1 sequence (P06870 25-262): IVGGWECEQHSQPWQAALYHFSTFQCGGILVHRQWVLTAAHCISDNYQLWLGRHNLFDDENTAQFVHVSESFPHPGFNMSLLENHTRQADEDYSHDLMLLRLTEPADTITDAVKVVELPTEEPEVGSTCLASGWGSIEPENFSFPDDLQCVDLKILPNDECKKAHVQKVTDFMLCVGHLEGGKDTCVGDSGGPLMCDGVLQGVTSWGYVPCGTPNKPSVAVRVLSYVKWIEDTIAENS
As to the kind of experiment: Determination of the IC50 for KLK1 (fluorogenic substrate H-DVal-Leu-Arg-AFC). Format: biochemical. The conditions noted are these: 37° C. In outline: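 Human KLK1 incubated at 37 °C with fluorogenic substrate H-DVal-Leu-Arg-AFC and a range of test compound concentrations. Residual activity was taken as initial reaction rate from absorbance change at 410 nm, and the IC50 derived from it.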
`CN(C)[C@@H](Cc1ccccc1)C(=O)N[C@@H](Cc1ccc(F)c(F)c1)C(=O)NCc1ccc(N)nc1` [Example 351, (S)—N-[(S)-1-[(6-Amino-pyridin-3-ylmethyl)-carbamoyl]-2-(3,4-difluoro-phenyl)-ethyl]-2-dimethylamino-3-phenyl-propionamide] returned an IC50 of 8.8 nM. As for `Nc1ccc(CNC(=O)[C@H](Cc2ccccc2Cl)NC(=O)[C@H]2CCCCN2)cn1` [Example 76, (R)-Piperidine-2-carboxylic acid [(S)-1-[(6-amino-pyridin-3-ylmethyl)-carbamoyl]-2-(2-chloro-phenyl)-ethyl]-amide], the IC50 is 21.8 nM. `Cc1cc[nH]c1C(=O)N[C@@H](Cc1cccc(Cl)c1)C(=O)NCc1ccc(N)nc1` [Example 266, 3-Methyl-1H-pyrrole-2-carboxylic acid [(S)-1-[(6-amino-pyridin-3-ylmethyl)-carbamoyl]-2-(3-chloro-phenyl)-ethyl]-amide] showed an IC50 of 5.7 nM.

`CN1CCCC[C@@H]1C(=O)N[C@@H](Cc1ccc(F)c(F)c1)C(=O)NCc1ccc(N)nc1` [Example 144, (R)-1-Methyl-piperidine-2-carboxylic acid [(S)-1-[(6-amino-pyridin-3-ylmethyl)-carbamoyl]-2-(3,4-difluoro-phenyl)-ethyl]-amide]: 20.9 nM corresponded to half-maximal inhibition (IC50). Turning to `Cc1cc(C)c(C(=O)N[C@@H](Cc2csc3ccccc23)C(=O)NCc2ccc(N)nc2)[nH]1` [Example 250, 3,5-Dimethyl-1H-pyrrole-2-carboxylic acid {(S)-1-[(6-amino-pyridin-3-ylmethyl)-carbamoyl]-2-benzo[b]thiophen-3-yl-ethyl}-amide], the IC50 turned out to be 0.8 nM. In the case of `CCCCN(C)CC(=O)N[C@@H](Cc1ccc(F)c(F)c1)C(=O)NCc1ccc(N)nc1` [Example 167, (S)—N-(6-Amino-pyridin-3-ylmethyl)-2-[2-(butyl-methyl-amino)-acetylamino]-3-(3,4-difluoro-phenyl)-propionamide], the IC50 was 258 nM. The same measure for `CC(C(=O)N[C@@H](Cc1ccc(F)c(F)c1)C(=O)NCc1ccc(N)nc1)N1CCCCC1` (stereo partly drawn) [Example 354, N-[(S)-1-[(6-Amino-pyridin-3-ylmethyl)-carbamoyl]-2-(3,4-difluoro-phenyl)-ethyl]-2-piperidin-1-yl-propionamide]: 11.6 nM. Consider `COc1ccc2[nH]c(C(=O)N[C@@H](Cc3cccc4ccccc34)C(=O)NCc3ccc(N)nc3)cc2c1` [Example 300, 5-Methoxy-1H-indole-2-carboxylic acid {(S)-1-[(6-amino-pyridin-3-ylmethyl)-carbamoyl]-2-naphthalen-1-yl-ethyl}-amide], for which the midpoint of inhibition, the IC50, lay at 7.4 nM. For the molecule `COc1ccc2[nH]c(C(=O)N[C@@H](Cc3cccc4ccccc34)C(=O)NCc3ccc(N)nc3C)cc2c1` [Example 304, 5-Methoxy-1H-indole-2-carboxylic acid {(S)-1-[(6-amino-2-methyl-pyridin-3-ylmethyl)-carbamoyl]-2-naphthalen-1-yl-ethyl}-amide], the midpoint of inhibition, the IC50, lay at 148 nM. The same measure for `CC(C)N1CCCC[C@@H]1C(=O)N[C@@H](Cc1ccc(F)c(F)c1)C(=O)NCc1ccc(N)nc1` [Example 146, (R)-1-Isopropyl-piperidine-2-carboxylic acid [(S)-1-[(6-amino-pyridin-3-ylmethyl)-carbamoyl]-2-(3,4-difluoro-phenyl)-ethyl]-amide]: 102 nM; for `Nc1ccc(CNC(=O)[C@H](Cc2csc3ccccc23)NC(=O)[C@H]2CCCCN2)cn1` [Example 78, (R)-Piperidine-2-carboxylic acid {(S)-1-[(6-amino-pyridin-3-ylmethyl)-carbamoyl]-2-benzo[b]thiophen-3-yl-ethyl}-amide]: 1.2 nM. For the molecule `CC(C)N1CCC[C@@H]1C(=O)N[C@@H](Cc1c[nH]c2ccccc12)C(=O)NCc1ccc(N)nc1` [Example 130, (R)-1-Isopropyl-pyrrolidine-2-carboxylic acid [(S)-1-[(6-amino-pyridin-3-ylmethyl)-carbamoyl]-2-(1H-indol-3-yl)-ethyl]-amide], half-maximal inhibition (IC50) was put at 5 nM. Turning to `CN(CC(=O)N[C@@H](Cc1ccc(F)c(F)c1)C(=O)NCc1ccc(N)nc1)CC1CCCCC1` [Example 169, (S)—N-(6-Amino-pyridin-3-ylmethyl)-2-[2-(cyclohexylmethyl-methyl-amino)-acetylamino]-3-(3,4-difluoro-phenyl)-propionamide], the IC50 is 334 nM. Regarding `CCC(C)[C@H](C(=O)N[C@@H](Cc1ccc(F)cc1)C(=O)NCc1ccc(N)nc1)N(C)C` (stereo partly drawn) [Example 182, (R)-2-Dimethylamino-3-methyl-pentanoic acid [(S)-1-[(6-amino-pyridin-3-ylmethyl)-carbamoyl]-2-(4-fluoro-phenyl)-ethyl]-amide], the IC50 amounted to 21.2 nM. Regarding `Cc1cc[nH]c1C(=O)N[C@@H](Cc1ccc(F)c(F)c1)C(=O)NCc1ccc(N)nc1C` [Example 286, 3-Methyl-1H-pyrrole-2-carboxylic acid [(S)-1-[(6-amino-2-methyl-pyridin-3-ylmethyl)-carbamoyl]-2-(3,4-difluoro-phenyl)-ethyl]-amide], half-maximal inhibition (IC50) required 4.3 nM. Next, “(R)—N-[(S)-1-[(6-Amino-pyridin-3-ylmethyl)-carbamoyl]-2-(3,4-dichloro-phenyl)-ethyl]-3-methyl-2-methylamino-butyramide [Example 340]”: 0.38 nM.

With `CC(C)N1CCC[C@@H]1C(=O)N[C@@H](Cc1ccc(Cl)cc1Cl)C(=O)NCc1ccc(N)nc1` [Example 127, (R)-1-Isopropyl-pyrrolidine-2-carboxylic acid [(S)-1-[(6-amino-pyridin-3-ylmethyl)-carbamoyl]-2-(2,4-dichloro-phenyl)-ethyl]-amide], the IC50 came to 0.9 nM.

Regarding `CN[C@H](Cc1ccccc1)C(=O)N[C@@H](Cc1cccc(Cl)c1)C(=O)NCc1ccc(N)nc1` [Example 342, (R)—N-[(S)-1-[(6-Amino-pyridin-3-ylmethyl)-carbamoyl]-2-(3-chloro-phenyl)-ethyl]-2-methylamino-3-phenyl-propionamide], the IC50 is 2.7 nM.

The molecule `CC(C)[C@H](C(=O)N[C@@H](Cc1cccc(Cl)c1)C(=O)NCc1ccc(N)nc1)N(C)C` [Example 406, (R)—N-[(S)-1-[(6-Amino-pyridin-3-ylmethyl)-carbamoyl]-2-(3-chloro-phenyl)-ethyl]-2-dimethylamino-3-methyl-butyramide] displayed an IC50 of 4.7 nM.

Take `Nc1ccc(CNC(=O)[C@H](CC2CCCC3CCCCC32)NC(=O)[C@H]2CCCN2)cn1` (stereo partly drawn) [Example 15, (R)-Pyrrolidine-2-carboxylic acid [(S)-1-[(6-amino-pyridin-3-ylmethyl)-carbamoyl]-2-(decahydro-naphthalen-1-yl)-ethyl]-amide]: half-maximal inhibition (IC50) required 1.2 nM. In the case of `Cc1cc(C(=O)O)[nH]c1C(=O)N[C@@H](Cc1cccc(C(F)(F)F)c1)C(=O)NCc1ccc(N)nc1` [Example 276, 5-[(S)-1-[(6-Amino-pyridin-3-ylmethyl)-carbamoyl]-2-(3-trifluoromethyl-phenyl)-ethylcarbamoyl]-4-methyl-1H-pyrrole-2-carboxylic acid], the IC50 came out at 30.5 nM. `CN(C)C(Cc1ccccc1)C(=O)NC(Cc1cccc(Cl)c1)C(=O)NCc1ccc(N)nc1` [Example 407, (R)—N-[(S)-1-[6-Amino-pyridin-3-ylmethyl)-carbamoyl]-2-(3-chloro-phenyl)-ethyl]-2-dimethylamino-3-phenyl-propionamide] registered an IC50 of 17 nM. Next, `CN(C)[C@H](Cc1ccccc1)C(=O)N[C@@H](CC1CCCC2CCCCC21)C(=O)NCc1ccc(N)nc1` (stereo partly drawn) [Example 397, (R)—N-[(S)-1-[(6-Amino-pyridin-3-ylmethyl)-carbamoyl]-2-(decahydro-naphthalen-1-yl)-ethyl]-2-dimethylamino-3-phenyl-propionamide]: 44.2 nM. The same measure for `CCN1CCC[C@@H]1C(=O)N[C@@H](Cc1cccc(C)c1)C(=O)NCc1ccc(N)nc1` [Example 137, (R)-1-Ethyl-pyrrolidine-2-carboxylic acid {(S)-1-[(6-amino-pyridin-3-ylmethyl)-carbamoyl]-2-m-tolyl-ethyl}-amide]: 288 nM; for `CCC(C)[C@@H](N)C(=O)N[C@@H](CC1CCCC2CCCCC21)C(=O)NCc1c(C)cc(N)nc1C` (stereo partly drawn) [Example 208, (R)-2-Amino-3-methyl-pentanoic acid [(S)-1-[(6-amino-2,4-dimethyl-pyridin-3-ylmethyl)-carbamoyl]-2-(decahydro-naphthalen-1-yl)-ethyl]-amide]: 32.1 nM. For `C[C@@H](C(=O)N[C@@H](CC1CCCCC1)C(=O)NCc1ccc(N)nc1)N(C)C` [Example 391, (S)—N-{(S)-1-[(6-Amino-pyridin-3-ylmethyl)-carbamoyl]-2-cyclohexyl-ethyl}-2-dimethylamino-propionamide], half-maximal inhibition (IC50) was put at 49.4 nM.

Regarding `Cc1nc(N)ccc1CNC(=O)[C@H](Cc1ccc(F)c(F)c1)NC(=O)[C@H]1CCCN1C` [Example 205, (R)-1-Methyl-pyrrolidine-2-carboxylic acid [(S)-1-[(6-amino-2-methyl-pyridin-3-ylmethyl)-carbamoyl]-2-(3,4-difluoro-phenyl)-ethyl]-amide], the IC50 was 6.7 nM. The molecule `COc1ccc(CN(C)CC(=O)N[C@@H](Cc2ccc(F)c(F)c2)C(=O)NCc2ccc(N)nc2)cc1` [Example 166, (S)—N-(6-Amino-pyridin-3-ylmethyl)-3-(3,4-difluoro-phenyl)-2-{2-[(4-methoxy-benzyl)-methyl-amino]-acetylamino}-propionamide] yielded an IC50 of 726 nM. The same measure for `CCC(C)[C@@H](NC)C(=O)N[C@H](Cc1ccc(Cl)c(Cl)c1)C(=O)NCc1ccc(N)nc1C` (stereo partly drawn) [Example 188, (2R)-3-Methyl-2-methylamino-pentanoic acid [(R)-1-[(6-amino-2-methyl-pyridin-3-ylmethyl)-carbamoyl]-2-(3,4-dichloro-phenyl)-ethyl]-amide]: 1.2 nM. `Cn1ccnc1C(=O)N[C@@H](Cc1ccc(F)cc1)C(=O)NCc1ccc(N)nc1` [Example 290, 1-Methyl-1H-imidazole-2-carboxylic acid [(S)-1-[(6-amino-pyridin-3-ylmethyl)-carbamoyl]-2-(4-fluoro-phenyl)-ethyl]-amide]: half-maximal inhibition (IC50) required 626 nM.
